# Experimental data reported in PubChem BioAssay (NCI).
#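 Grown in 96-well plates, cells were treated for 48 hours with each compound at five concentrations. Insufficient inhibition: endpoint recorded as highest concentration tested. At the TGI there is no net growth.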
# Assays:
# Test in all cases: NCI anticancer screen, dose series, 48 h
# U251 CNS = test system: U251 CNS
# KM12 colon = test system: KM12 colon
# OVCAR-3 ovarian = test system: OVCAR-3 ovarian
# HT29 colon = test system: HT29 colon
# IGROV1 ovarian = test system: IGROV1 ovarian
# HCT-116 colon = test system: HCT-116 colon
# OVCAR-8 ovarian = test system: OVCAR-8 ovarian
# M14 melanoma = test system: M14 melanoma
# CCRF-CEM leukemia = test system: CCRF-CEM leukemia
# LOX IMVI melanoma = test system: LOX IMVI melanoma
# SR leukemia = test system: SR leukemia
# MOLT-4 leukemia = test system: MOLT-4 leukemia
# A549 NSCLC = test system: A549 NSCLC
# ACHN renal = test system: ACHN renal
# K-562 leukemia = test system: K-562 leukemia
# SK-MEL-28 melanoma = test system: SK-MEL-28 melanoma
# 786-0 renal = test system: 786-0 renal
# SW-620 colon = test system: SW-620 colon
structure (smiles),measurement,setting,value
N#CCC(=O)N/N=C(\C(=O)Nc1ccc(Cl)c(Cl)c1)C1CN(c2ccccc2)N=C1N (stereo not given),TGI,U251 CNS,> 100 µM
same,TGI,KM12 colon,> 100 µM
same,TGI,OVCAR-3 ovarian,> 100 µM
same,TGI,HT29 colon,> 100 µM
same,TGI,IGROV1 ovarian,> 100 µM
same,TGI,HCT-116 colon,> 100 µM
same,TGI,OVCAR-8 ovarian,> 100 µM
same,TGI,M14 melanoma,> 100 µM
same,TGI,CCRF-CEM leukemia,> 100 µM
same,TGI,LOX IMVI melanoma,> 100 µM
same,TGI,SR leukemia,> 100 µM
same,TGI,MOLT-4 leukemia,> 100 µM
same,TGI,A549 NSCLC,> 100 µM
same,TGI,ACHN renal,> 100 µM
same,TGI,K-562 leukemia,> 100 µM
same,TGI,SK-MEL-28 melanoma,> 100 µM
same,TGI,786-0 renal,> 100 µM
COc1ccccc1/C=C1\CCC(CCN2CCOCC2)C1=O (stereo not given),TGI,KM12 colon,> 100 µM
same,TGI,SW-620 colon,> 100 µM
same,TGI,OVCAR-3 ovarian,> 100 µM
same,TGI,HT29 colon,> 100 µM
same,TGI,IGROV1 ovarian,> 100 µM
same,TGI,HCT-116 colon,> 100 µM
same,TGI,OVCAR-8 ovarian,> 100 µM
same,TGI,M14 melanoma,> 100 µM
same,TGI,CCRF-CEM leukemia,> 100 µM
same,TGI,LOX IMVI melanoma,> 100 µM
same,TGI,SR leukemia,> 100 µM
same,TGI,MOLT-4 leukemia,> 100 µM
same,TGI,A549 NSCLC,> 100 µM
same,TGI,ACHN renal,> 100 µM
same,TGI,K-562 leukemia,> 100 µM
same,TGI,SK-MEL-28 melanoma,> 100 µM
same,TGI,786-0 renal,> 100 µM
O=C1C2CN(Cc3ccccc3)CC1CN(CC1CC1)C2,TGI,U251 CNS,> 100 µM
same,TGI,KM12 colon,> 100 µM
same,TGI,SW-620 colon,> 100 µM
same,TGI,OVCAR-3 ovarian,> 100 µM
same,TGI,HT29 colon,> 100 µM
same,TGI,IGROV1 ovarian,> 100 µM
same,TGI,OVCAR-8 ovarian,> 100 µM
same,TGI,M14 melanoma,> 100 µM
same,TGI,CCRF-CEM leukemia,> 100 µM
same,TGI,LOX IMVI melanoma,> 100 µM
same,TGI,MOLT-4 leukemia,> 100 µM
same,TGI,A549 NSCLC,> 100 µM
same,TGI,ACHN renal,> 100 µM
same,TGI,K-562 leukemia,> 100 µM
same,TGI,SK-MEL-28 melanoma,> 100 µM
same,TGI,786-0 renal,> 100 µM
COc1c(C)cc2c(c1O)C1NC(C2)[C@H](O)N2C3COC(=O)[C@@]4(CS[C@@H](c5c(OC(C)=O)c(C)c6c(c53)OCO6)C12)NCCC1=C4NC2C=CC=CC12 (stereo not given in full),TGI,U251 CNS,< 0.01 µM
same,TGI,SW-620 colon,< 0.01 µM
same,TGI,OVCAR-3 ovarian,< 0.01 µM
same,TGI,HT29 colon,0.107 µM
same,TGI,IGROV1 ovarian,< 0.01 µM
same,TGI,OVCAR-8 ovarian,< 0.01 µM
same,TGI,M14 melanoma,< 0.01 µM
same,TGI,CCRF-CEM leukemia,< 0.01 µM
same,TGI,LOX IMVI melanoma,< 0.01 µM
same,TGI,MOLT-4 leukemia,< 0.01 µM
same,TGI,A549 NSCLC,< 0.01 µM
same,TGI,ACHN renal,0.0148 µM
same,TGI,K-562 leukemia,0.0202 µM
same,TGI,SK-MEL-28 melanoma,< 0.01 µM
same,TGI,786-0 renal,< 0.01 µM
CCOc1ccc(NC(=O)C2=C(C)NC(C)=C(C(=O)Nc3ccc(OCC)cc3)C2c2ccccc2)cc1,TGI,U251 CNS,> 100 µM
same,TGI,KM12 colon,> 100 µM
same,TGI,SW-620 colon,> 100 µM
same,TGI,OVCAR-3 ovarian,> 100 µM
same,TGI,HT29 colon,> 100 µM
same,TGI,IGROV1 ovarian,> 100 µM
same,TGI,OVCAR-8 ovarian,> 100 µM
same,TGI,M14 melanoma,> 100 µM
same,TGI,CCRF-CEM leukemia,> 100 µM
same,TGI,LOX IMVI melanoma,> 100 µM
same,TGI,MOLT-4 leukemia,> 100 µM
same,TGI,A549 NSCLC,> 100 µM
same,TGI,ACHN renal,> 100 µM
same,TGI,K-562 leukemia,> 100 µM
same,TGI,SK-MEL-28 melanoma,> 100 µM
same,TGI,786-0 renal,> 100 µM
NCCN1C(=O)C2C3c4ccccc4C(c4ccccc43)C2C1=O (stereo not given),TGI,U251 CNS,> 100 µM
same,TGI,KM12 colon,> 100 µM
same,TGI,SW-620 colon,> 100 µM
same,TGI,OVCAR-3 ovarian,> 100 µM
same,TGI,HT29 colon,> 100 µM
same,TGI,IGROV1 ovarian,> 100 µM
same,TGI,HCT-116 colon,> 100 µM
same,TGI,OVCAR-8 ovarian,> 100 µM
same,TGI,M14 melanoma,> 100 µM
same,TGI,CCRF-CEM leukemia,> 100 µM
same,TGI,MOLT-4 leukemia,> 100 µM
same,TGI,A549 NSCLC,> 100 µM
same,TGI,ACHN renal,> 100 µM
same,TGI,K-562 leukemia,> 100 µM
same,TGI,SK-MEL-28 melanoma,> 100 µM
same,TGI,786-0 renal,> 100 µM
COc1ccc(C=C(c2ccc(OCc3ccccc3)cc2)c2ccc(OCc3ccccc3)cc2)cc1,TGI,U251 CNS,> 100 µM
same,TGI,KM12 colon,> 100 µM
same,TGI,SW-620 colon,> 100 µM
same,TGI,OVCAR-3 ovarian,> 100 µM
same,TGI,HT29 colon,> 100 µM
same,TGI,IGROV1 ovarian,> 100 µM
same,TGI,OVCAR-8 ovarian,> 100 µM
same,TGI,M14 melanoma,> 100 µM
same,TGI,LOX IMVI melanoma,> 100 µM
same,TGI,SR leukemia,> 100 µM
same,TGI,A549 NSCLC,> 100 µM
same,TGI,ACHN renal,> 100 µM
same,TGI,SK-MEL-28 melanoma,> 100 µM
same,TGI,786-0 renal,> 100 µM
CC(C)N1CN(C(C(=O)N[C@@H]2C(=O)N3C2SC(C)(C)C3C(=O)O)c2ccc(O)cc2)CSC1=S (stereo not given in full),TGI,U251 CNS,> 100 µM
same,TGI,KM12 colon,> 100 µM
same,TGI,SW-620 colon,36.9 µM
same,TGI,OVCAR-3 ovarian,> 100 µM
same,TGI,HT29 colon,> 100 µM
same,TGI,IGROV1 ovarian,> 100 µM
same,TGI,HCT-116 colon,> 100 µM
same,TGI,OVCAR-8 ovarian,> 100 µM
same,TGI,M14 melanoma,> 100 µM
same,TGI,CCRF-CEM leukemia,> 100 µM
same,TGI,LOX IMVI melanoma,> 100 µM
same,TGI,MOLT-4 leukemia,> 100 µM
same,TGI,ACHN renal,> 100 µM
same,TGI,K-562 leukemia,> 100 µM
same,TGI,SK-MEL-28 melanoma,> 100 µM
same,TGI,786-0 renal,> 100 µM
Brc1cc2c(cc1C1SCCS1)OCO2,TGI,U251 CNS,> 100 µM
same,TGI,KM12 colon,> 100 µM
same,TGI,SW-620 colon,> 100 µM
same,TGI,OVCAR-3 ovarian,> 100 µM
same,TGI,HT29 colon,> 100 µM
same,TGI,IGROV1 ovarian,> 100 µM
same,TGI,HCT-116 colon,> 100 µM
same,TGI,OVCAR-8 ovarian,> 100 µM
same,TGI,M14 melanoma,> 100 µM
same,TGI,CCRF-CEM leukemia,> 100 µM
same,TGI,LOX IMVI melanoma,> 100 µM
same,TGI,SR leukemia,> 100 µM
same,TGI,MOLT-4 leukemia,> 100 µM
same,TGI,A549 NSCLC,> 100 µM
same,TGI,ACHN renal,> 100 µM
same,TGI,K-562 leukemia,> 100 µM
same,TGI,SK-MEL-28 melanoma,> 100 µM
same,TGI,786-0 renal,> 100 µM
COc1cc(/C=C\c2cccnc2)cc(OC)c1OC,TGI,U251 CNS,> 100 µM
same,TGI,KM12 colon,> 100 µM
same,TGI,SW-620 colon,> 100 µM
same,TGI,OVCAR-3 ovarian,> 100 µM
same,TGI,HT29 colon,> 100 µM
same,TGI,IGROV1 ovarian,> 100 µM
same,TGI,HCT-116 colon,> 100 µM
same,TGI,OVCAR-8 ovarian,> 100 µM
same,TGI,M14 melanoma,97.2 µM
same,TGI,CCRF-CEM leukemia,> 100 µM
same,TGI,LOX IMVI melanoma,71.3 µM
same,TGI,MOLT-4 leukemia,43.1 µM
same,TGI,A549 NSCLC,> 100 µM
same,TGI,ACHN renal,> 100 µM
same,TGI,K-562 leukemia,> 100 µM
same,TGI,SK-MEL-28 melanoma,> 100 µM
same,TGI,786-0 renal,> 100 µM
CCCCCCCC(=O)OCC1OC(OC)C(NC(=O)N(CCCl)N=O)C(O)C1O (stereo not given),TGI,U251 CNS,> 70.1 µM
same,TGI,KM12 colon,27.7 µM
same,TGI,SW-620 colon,18.9 µM
same,TGI,OVCAR-3 ovarian,47.7 µM
same,TGI,HT29 colon,50.3 µM
same,TGI,IGROV1 ovarian,67.1 µM
same,TGI,HCT-116 colon,15 µM
same,TGI,OVCAR-8 ovarian,57.2 µM
same,TGI,M14 melanoma,21.6 µM
same,TGI,CCRF-CEM leukemia,40.5 µM
same,TGI,LOX IMVI melanoma,23.8 µM
same,TGI,SR leukemia,23.9 µM
same,TGI,MOLT-4 leukemia,36.1 µM
same,TGI,A549 NSCLC,> 72.3 µM
same,TGI,ACHN renal,> 100 µM
same,TGI,K-562 leukemia,> 58 µM
same,TGI,SK-MEL-28 melanoma,> 100 µM
same,TGI,786-0 renal,22.7 µM
